Measurements from PubChem BioAssay AID463229 (Broad Institute, 2010).
Where “and” joins values, the source holds several entries; their conditions need not be identical. Identical values can stand only once. Calls of active or inactive are those of the source.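 Rule for the calls: active = compounds raising the signal whose fitted half-maximal concentration is at or below their top tested dose (cut at about 25 µM in these data); inconclusive = flat fit at 30 to 70% activity, or a poor fit; inactive = the rest.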

What follows are compounds tested on INS-1E rat beta cells, no cytokines, CellTiter-Glo ATP, 48 h (assay: cytokine-free beta-cell viability effect – INS-1E rat cells, ATP luminescence, cherry pick, counter-screen for beta-cell apoptosis protection project, dose response (AID 463229)).

Structure (SMILES)	AC50
CCc1ccc(-c2cc(C(F)(F)F)n3nc(C(=O)Nc4cnn(Cc5ccc(C)cc5)c4)cc3n2)s1	7.83 µM
CCCCCCCCCCOC(=O)Cn1c(COc2ccc(OC)cc2)[n+](C)c2ccccc21	4.96 µM and 3.95 µM
CCn1c(=NC(=O)CCS(=O)(=O)c2ccccc2)sc2cccc(OC)c21	7.2 µM
COC(=O)C[C@]1(C(=O)OC)CN(C#N)N(c2ccc(Cl)cc2)C12c1ccccc1-c1ccccc12	4.13 µM
Cc1ccc(-c2c[n+](Cc3ccc(Cl)cc3)c3n2CCC3)cc1	7.79 µM
CCC(C)(C)c1ccc(OCCCC[n+]2ccccc2)c(C(C)(C)CC)c1	2.27 µM
O=C(N/N=C/c1ccccc1)c1c(O)c2ccccc2[nH]c1=O	6.58 µM
CCCCCCSc1cc(-c2nc3ccc(C)cn3c2NCCCC)ccc1OC	6.79 µM
CCCCCCCCCCCCCCCC[N+](C)(C)C	7.81 µM
CN(CC1CCCO1)S(=O)(=O)c1ccc(C(=O)Nc2nc(-c3ccccn3)cs2)cc1 (stereo not given)	10.4 µM
CC(C)(C)c1nnc(N/N=C/c2cc(Br)ccc2O)n(N)c1=O	3.97 µM
CCCC(=O)NC(c1ccc(C)cc1)c1ccc2cccnc2c1O (stereo not given)	1.99 µM
CCc1cc(SC#N)cc(C)c1NC(=O)CCl	4.52 µM
COc1cccc(/C=N/NC(=O)c2c(C)nc3ccc(Br)cn23)c1O	3.16 µM
COc1ccc(C(=O)/C(=C\c2ccco2)N2C=CC=CC2=C(C#N)C#N)cc1	7.26 µM
COc1cccc(/C=N/NC(=O)CN2CC(c3ccccc3)CC2=O)c1O (stereo not given)	18.7 µM
Cc1ccc(-c2nc(NC(=O)c3nn(C)cc3[N+](=O)[O-])sc2C)cc1C	3.43 µM
COc1cccc(N=Nc2ccc(O)c3ncccc23)c1	6.47 µM
Cc1cc(C)c(CN2CCN(C(=O)Cn3cnc4c(OCc5ccccc5)ncnc43)CC2)c(C)c1	6.91 µM
CCn1c(=O)c([N+](=O)[O-])c(Cl)c2ccccc21	7.4 µM
O=C(Nc1nc(NC(=O)c2ccco2)n(-c2ccccc2)n1)c1ccccc1	6.83 µM
N=c1c2c(n(Cc3ccc(Br)cc3)c3c1CCC3)CCCC2	3.04 µM
COc1ccc(-n2c(-c3ccc(Cl)cc3)c[n+]3c2CCCCC3)cc1	1.6 µM
Cc1ccccc1OCc1n(CC(=O)OC2CC(C)CCC2C(C)C)c2ccccc2[n+]1C (stereo not given)	4.05 µM
CCCC(=O)NC(c1ccc2c(c1)OCO2)c1cc(Cl)c2cccnc2c1O (stereo not given)	4.39 µM
Cc1onc(-c2c(Cl)cccc2Cl)c1C(=O)N/N=C(\N)COc1ccc(Cl)cc1	14.5 µM
N=c1c2c(n(Cc3ccc(Cl)cc3Cl)c3c1CCC3)CCCC2	3.99 µM

Structure (SMILES)	AC50
O=C(c1cc(COc2cccc3cnccc23)on1)N1CCCC(CCCO)C1 (stereo not given)	2.04 µM
Cc1cccc(/C=C/C(=O)c2ccc([N+](=O)[O-])o2)c1	4.26 µM
O=C(N/N=C/c1cc([N+](=O)[O-])ccc1O)c1cccc2cc[nH]c12	6.89 µM
COc1ccc2[nH]c(C(=O)N/N=C/c3ccc(O)cc3O)cc2c1	2.08 µM
CC1(C)Cc2c(c(N3CCOCC3)nc3sc4c(NN)ncnc4c23)CS1	6.38 µM
CC(C)Nc1ccc(Nc2ccccc2)cc1	7.5 µM
Cc1nc2c(=O)n(C)c(=O)nc-2n(C)n1	2.06 µM
Cc1ccc(NC(=O)Nc2cccc([N+](=O)[O-])c2)cc1F	8.06 µM
Cc1cccc(Oc2cc(NC(=O)c3ccccc3)cc([N+](=O)[O-])c2)c1	7.84 µM
COc1ccc(C(=O)NN/C(C)=C/C(=O)C(F)(F)C(F)(F)C(F)(F)F)cc1	> 26 µM (inactive)
COc1cccc(F)c1C(C[N+](=O)[O-])c1c(N)n(C)c(=O)n(C)c1=O (stereo not given)	8.3 µM
CCN(CC)CCn1c2ccccc2c2cnc(N)c(C#N)c21	14.3 µM
O=[N+]([O-])c1ccc(NC(=S)NCCc2ccc(F)cc2)cc1	7.46 µM
COc1ccc(C(NC(=O)C(C)C)c2ccc3cccnc3c2O)cc1 (stereo not given)	2.84 µM
C/C(=N\NC(=O)c1cc(Br)ccc1O)c1ccccn1	7.82 µM
S=C(Nc1ccc(Cl)cc1)Nc1cccc2cnccc12	22.2 µM
CCOC(=O)[C@@H]1[C@H]2COc3cc(OC)ccc3[C@H]2N2C(=O)N(c3ccc(C(F)(F)F)cc3)C(=O)[C@]12C	15 µM
COc1ccc(C2=Nn3c([n+](C)c4ccccc43)SC2)cc1	1.54 µM
C/C(=N\NC(=O)c1ccc(Cl)c(Cl)c1)c1ccccn1	0.98 µM
Cc1ccc(NC(=O)C2=C(c3ccccc3)S(=O)(=O)CCS2(=O)=O)cc1	12.6 µM
Cc1ccc(Nc2cc(C)nc(NCc3ccccc3)n2)cc1	8.01 µM
O=C(CNC(=O)c1ccccc1O)N/N=C/c1cc(Br)ccc1OC(=O)/C=C/c1ccco1	10.7 µM
COc1ccc2nc(C)cc(SCC(=O)N/N=C/c3ccc(O)cc3O)c2c1	17.4 µM
O=C1N/C(=N/N=C/c2ccccc2O)SC1Cc1ccc(F)cc1 (stereo not given)	14.6 µM
Cc1cc(Nc2cccc(Cl)c2)nc(NCc2ccccc2)n1	6.46 µM
CN1/C(=C\C(=O)COC(=O)c2ccc(O)c(O)c2)C(C)(C)c2ccccc21	10.1 µM
O=C(N/N=C/c1cc(Br)cc(Br)c1O)c1ccncc1	7.34 µM

Structure (SMILES)	AC50
CCCCCc1ccc(OCCCC[n+]2cccc(C)c2)c(CCCCC)c1	2.1 µM
CCOC(=O)N1CCN(C(=O)CSCC(=O)Nc2nc(-c3ccc(-c4ccccc4)cc3)cs2)CC1	4.49 µM
CCCCCCCCCCOC(=O)Cn1c(COc2ccccc2)[n+](C)c2ccccc21	4.25 µM
OC(c1cc(-c2ccc(Cl)cc2)nc2ccccc12)C1CCCCN1 (stereo not given)	15.1 µM
CC(C)(C)c1ccc(CSc2cnn(C(C)(C)C)c(=O)c2Cl)cc1	< 0.195 µM
CCCC[C@@H](CN[C@H](C)CNC)NCC1CCC(C(C)(C)C)CC1 (stereo not given in full)	15 µM
O=C(N/N=C/c1cccc(F)c1)c1c(O)c2ccccc2[nH]c1=O	4.35 µM
COc1ccccc1C(CCNCc1ccc(N(C)C)cc1)c1ccc(OC(C)C)cc1 (stereo not given)	9.78 µM
CN1/C(=C\C(=S)Nc2ccccc2)C(C)(C)c2ccccc21	10.1 µM
COc1ccc(/C=N/Nc2cc(C)nc(-n3nc(C)cc3C)n2)c(OC)c1	18.4 µM
S=C(NCc1ccc(Cl)cc1)NC12CC3CC(CC(C3)C1)C2	13.9 µM
Cc1ccc(-c2cn(-c3ccc(OC(F)F)cc3)c3[n+]2CCCCC3)cc1	1.45 µM
COc1ccc(/C=C/C(=O)c2ccc([N+](=O)[O-])o2)cc1OC	4.93 µM
CCCCC(CC)CN1C(=O)/C(=C/c2ccncc2)SC1=S (stereo not given)	> 26 µM (inactive)
Cc1ccccc1OCC(O)CNC1CCC(NCC(O)COc2ccccc2C)CC1 (stereo not given)	6.66 µM
Cc1ccccc1Oc1cc(NC(=O)CCCn2nc(C)c([N+](=O)[O-])c2C)cc([N+](=O)[O-])c1	6.44 µM
N#Cc1ccc(-c2ccc(Cl)cc2)nc1SCC(=O)c1cccc(Cl)c1	6 µM
CCOc1cccc(/C=N/NC(=O)c2ccc3c(c2)OCCO3)c1O	8.21 µM
COC(=O)[C@@H](Cc1ccccc1)N(Cc1ccccc1)S(=O)(=O)N(Cc1ccccc1)[C@H](Cc1ccccc1)C(=O)OC	4.27 µM
O=C1C=C(Nc2ccccc2O)c2ccccc2C1=O	8.04 µM
O=C(Nc1nc2ccccc2s1)c1cc(-c2ccccc2)nn1-c1ccccc1	3.74 µM
Cn1c(NN=O)nc2ccccc21	4.08 µM
COc1ccccc1/C=C1\SC(=O)N(CCC(=O)NCCCn2ccnc2)C1=O	8.2 µM
O=[N+]([O-])c1c(Nc2ccccn2)cc(Cl)c2nonc12	7.39 µM
O=C(N/N=C/c1cc(Cl)ccc1O)c1ccc(Br)cc1	4.07 µM
c1ccc(-c2nc(NCc3ccco3)c3ccccc3n2)nc1	8.46 µM
